In ChEMBL document CHEMBL2202997, “Ex vivo study of the vasorelaxant activity induced by phenanthrene derivatives isolated from Maxillaria densa” (J Nat Prod, 2012):
Calls of active or inactive are those of the source. The calls are words filed in the database; no cut-off is given here.

Assays:
Aorta [1] = assay: Vasorelaxant activity in Wistar rat endothelium-denuded aorta assessed as inhibition of FPL-64176-induced contraction at 11 to 63 uM; assay type: functional, tissue-based
Aorta [2] = assay: Vasorelaxant activity in Wistar rat aorta without endothelium assessed as inhibition of extracellular Ca2+-induced contractions activated by potassium chloride-induced contraction; assay type: functional, tissue-based
Aorta [3] = assay: Vasorelaxant activity in Wistar rat aorta without endothelium assessed as inhibition of norepinephrine-induced contraction relative to control; assay type: functional
Aorta [4] = assay: Vasorelaxant activity in Wistar rat aorta with endothelium assessed as inhibition of norepinephrine-induced contraction; assay type: functional, tissue-based
Aorta [5] = assay: Vasorelaxant activity in Wistar rat aorta without endothelium assessed as inhibition of norepinephrine-induced contraction; assay type: functional, tissue-based
Aorta [6] = assay: Vasorelaxant activity in Wistar rat endothelium-denude aorta assessed as inhibition of norepinephrine-induced contraction in presence of soluble guanylyl cyclase inhibitor ODQ; assay type: functional, tissue-based
Aorta [7] = assay: Induction of relaxation in Wistar rat endothelium-denuded aorta in presence of potassium channel blocker glibenclamide; assay type: functional, tissue-based
Aorta [8] = assay: Vasorelaxant activity in Wistar rat aorta without endothelium assessed as inhibition of extracellular Ca2+-induced contractions activated by potassium chloride-induced contraction relative to control; assay type: functional
Aorta [9] = assay: Vasorelaxant activity in Wistar rat aorta with endothelium assessed as inhibition of norepinephrine-induced contraction relative to control; assay type: functional
Aorta [10] = assay: Induction of relaxation in Wistar rat endothelium-denuded aorta in presence of potassium channel blocker TEA; assay type: functional, tissue-based
Aorta [11] = assay: Vasorelaxant activity in Wistar rat endothelium-denuded aorta assessed as inhibition of CaCl2-induced contraction; assay type: functional, tissue-based

Row | EC50 (Aorta [4]) | Compound | inhibition (Aorta [1]) | EC50 (Aorta [2]) | Efficacy (Aorta [3]) | inhibition (Aorta [4]) | EC50 (Aorta [5]) | inhibition (Aorta [5]) | inhibition (Aorta [6]) | Activity (Aorta [7]) | Efficacy (Aorta [8]) | Efficacy (Aorta [9]) | Activity (Aorta [10]) | inhibition (Aorta [11])
1 | 0.41 µM | C[N+](C)(C)CCOC(N)=O.[Cl-] [CARBACHOL] |  |  |  |  |  |  |  |  |  | 74.06% |  | 
2 | 142 µM | COc1c(O)cc2c(c1OC)-c1ccc(O)cc1CC2 [ERIANTHRIDIN] |  |  | 82.4% | Dose-dependent effect | 167 µM | Dose-dependent effect |  |  |  | 85.47% |  | 
3 |  | COC(=O)C1=C(C)NC(C)=C(C(=O)OC)C1c1ccccc1[N+](=O)[O-] [NIFEDIPINE] |  |  | 97% |  | 4.31 µM |  |  |  |  |  |  | 
4 | 234 µM | COc1c(O)cc2cc(OC)c3cccc(O)c3c2c1OC [FIMBRIOL A] |  |  | 73.86% | Dose-dependent effect | 288 µM | Dose-dependent effect |  |  |  | 83.05% |  | 

Row | Compound | EC50 (Aorta [4]) | inhibition (Aorta [1]) | EC50 (Aorta [2]) | Efficacy (Aorta [3]) | inhibition (Aorta [4]) | EC50 (Aorta [5]) | inhibition (Aorta [5]) | inhibition (Aorta [6]) | Activity (Aorta [7]) | Efficacy (Aorta [8]) | Efficacy (Aorta [9]) | Activity (Aorta [10]) | inhibition (Aorta [11])
5 | COc1c(O)cc2cc(OC)c3cc(O)ccc3c2c1OC [GYMNOPUSIN] | 63 µM | Dose-dependent effect | 119 µM | 98.18% | Dose-dependent effect | 70.2 µM | Dose-dependent effect | Active | inactive | 71.3% | 94% | inactive | Active
